One test deals with STAT-1. Kind of test: EMSA of STAT-1 in IL-1β-exposed human neural progenitor cells. As to conditions: HN progenitor cells. The format is cell-based. The protocol:
(§1) Human neural (HN) progenitor cells in primary culture. HN cells were grown to ˜70% confluence (˜50,000 cells per 3.5-cm diameter well) in 6-well COSTAR plates at 37° C., 5% CO2/20% O2/75% N2 in humidified air at 1 atm (normoxic conditions) in NPMM medium (Clonetics CC-4241) supplemented with hFGF, NSF-1, hEGF, GA-1000, as described by the manufacturer (Clonetics, Walkersville, Md.). HN cells tested negative for HIV-1, hepatitis B and C, mycoplasma, bacteria, yeast, and fungi, and positive for the glial and neuronal markers GFAP, MAP2, and β-tubulin III (Clonetics). […]
(§2) Electrophoretic mobility-shift assay (EMSA) of human AP1, HIF-1α, NF-κBp50/p65, and STAT-1α. Nuclear protein extracts (NPXTs) were prepared from one to three 3.5 cm-diameter wells of HN cells and quantitated. NPXTs (5 μg) derived from HN cells were incubated with[γ-^32P]-ATP (˜3000 Ci/mmol)-end-labeled AP1, HIF-1α, NF-κκBp50/p65, or STAT-1α consensus and mutant oligonucleotides in 5-μl volumes, reacted for 30 min on ice, analyzed on 5% or 10% acrylamide/90 mM Tris-borate pH 8.4, 1 mM EDTA (TBE) gels, dried onto 2-mm Whatman filter paper at 80° C. for 2 h, and phosphorimaged using a Typhoon Variable Mode Imager (Amersham Pharmacia Biotech, Piscataway, N.J. ).
(In general: In EMSA bound probe runs differently from free probe, usually more slowly.)

The next test has as its system Bcl-xL. In words: Western blot of Bcl-xL in ARPE-19 cells under TNFα/H2O2. The format is cell-based, human. As to conditions: 50 nM; TNFα plus H2O2 (400 or 800 μM) 6 h. On the procedure:
Analysis of pro- and anti-apoptotic proteins in ARPE-19 cells: Bcl-2 family proteins were analyzed by Western-blot analysis. In brief, 20-μg equivalents of each cell extract were subjected to electrophoresis on a 8-16% gel (Promega, Madison, Wis.) at 125 volts for 2 h. The proteins were transferred to nitrocellulose membrane at 30 volts for 1 h at 4° C. The membranes were subjected to treatment with primary antibodies of Bcl-2, Bcl-xL, Bax, and Bad for 1 h at room temperature, and probed 30 min with secondary antibody, goat anti-rabbit Ig:HRPO and HRP-conjugated anti-biotin antibody. (BD Sciences—Pharminogen, San Diego, Calif.) Then proteins were evaluated using an ECL kit. (Amersham Biosciences Corp., Piscataway, N.J.)
Using the same TNFα/H2O2 concentrations, Bcl-2 proteins were assayed. Cells were grown for 72 h after plating, placed in serum-free medium for 1 h, then incubated with TNFα/H2O2 for 6 h. Protein expression and Western-blot analysis were performed as described in Example 13. Data in FIGS. 14A, 14B, 14C and 14D represent four independent experiments with triplicate samples in each case. Anti-apoptotic protein Bcl-xL was enhanced in ARPE-19 cells by TNFα/H2O2 (800 μM) (FIG. 14B, first bar), whereas Bcl-2 was not changed (FIG. 14A, first bar).
(Immunoblotting shows a protein as a band on a membrane.)

In another test the test system is COX-2 expression. Kind of test: COX-2 mRNA abundance in ipsilateral hippocampus after MCA-O. The format is in vivo, mouse. As to conditions: 1 h MCA-O, 2 h reperfusion, infused into third ventricle (NPD1 0.16 μg/ml). The protocol:
COX-2 RNA abundance in hippocampus and HN cells. Abundance of human-specific COX-1 and COX-2 RNA message was assayed using RT-PCR as described in Bazan, N. G., and Lukiw, W. J. (2002) J. Biol. Chem. 277, 30359-30367.
To determine COX-1 and COX-2 expression, mRNA abundance in the ipsilateral hippocampus was measured. […] A 3-fold increase of COX-2 was seen due to MCA-O reperfusion (FIG. 7C). The infusion of the precursor DHA as well as its product 10,17S-docosatriene (NPD1) inhibited COX-2 expression by 14% and 52%, respectively.

For test [1], the system named is IL-1β-induced NF-κB activation. Kind of test: EMSA of NF-κB in IL-1β-exposed human neural progenitor cells. As to conditions: HN progenitor cells, IL-1β 10 ng/ml 3 h. The class given is cell-based. On the procedure: as §1, §2

Experimental findings from patent US20050075398A1, “Neuroprotectin D1 protects against cellular apoptosis, stroke damage, alzheimer's disease and retinal diseases” (priority 2003, published 2005) are described below.

For the compound `CC/C=C\C[C@H](O)\C=C/C=C/C=C/[C@H](O)C/C=C\C/C=C\CCC(=O)O` [NPD1, 10,17S-docosatriene], in the test with STAT-1, the “effect on STAT-1” value was “unaffected”. Moreover, the “effect on Bcl-xL expression” value in the test on Bcl-xL was “increased expression”. The “inhibition of COX-2 expression (mRNA)” value in the test on COX-2 expression turned out to be 52%. Moreover, the “concentration at which inhibitory effect on NF-κB is seen (as low as)” value in test [1] was 0.3 nM. For the same compound, in test [1] (concentration-dependent), the “effect on IL-1β-induced NF-κB activation” value is reported as “down-regulated”.
